Measurements: patent US6583147B1, “Pyrazolopyrimidinone derivatives for the treatment of impotence” (Dong A Pharm Co., Ltd., priority 1998, dated 2003)
pIC50: −log10 of the molar value. ≈ marks a conversion by molar mass, not a printed value. Read-outs that look alike come from different tables or passages of the source.

Key:
rats = assay: Penile erection test using rats; assay type: in vivo, rat; conditions: oral single dose 10 mg/kg in 0.5% methyl cellulose, observed for 2 hours
[1] = Acute oral toxicity test in rats; conditions: SD, rat, in vivo, 1 g/kg; rats, oral single dose; read-out: lethal dose (LD50) of oral administration
[2] = biological target: T1, Phosphodiesterase-3 enzyme (PDE 3) (Oryctolagus cuniculus, UniProt G1ST54); assay: Test for phosphodiesterase-3 (PDE 3) activity; assay type: biochemical; conditions: PDE 3 fraction from platelets of a rabbit
T1 construct: The supernatant was separated by DEAE-cellulose column chromatography (Whatman DE52 bead); from tissue; host or cells: rabbit platelets
T1 sequence (G1ST54 1-1128): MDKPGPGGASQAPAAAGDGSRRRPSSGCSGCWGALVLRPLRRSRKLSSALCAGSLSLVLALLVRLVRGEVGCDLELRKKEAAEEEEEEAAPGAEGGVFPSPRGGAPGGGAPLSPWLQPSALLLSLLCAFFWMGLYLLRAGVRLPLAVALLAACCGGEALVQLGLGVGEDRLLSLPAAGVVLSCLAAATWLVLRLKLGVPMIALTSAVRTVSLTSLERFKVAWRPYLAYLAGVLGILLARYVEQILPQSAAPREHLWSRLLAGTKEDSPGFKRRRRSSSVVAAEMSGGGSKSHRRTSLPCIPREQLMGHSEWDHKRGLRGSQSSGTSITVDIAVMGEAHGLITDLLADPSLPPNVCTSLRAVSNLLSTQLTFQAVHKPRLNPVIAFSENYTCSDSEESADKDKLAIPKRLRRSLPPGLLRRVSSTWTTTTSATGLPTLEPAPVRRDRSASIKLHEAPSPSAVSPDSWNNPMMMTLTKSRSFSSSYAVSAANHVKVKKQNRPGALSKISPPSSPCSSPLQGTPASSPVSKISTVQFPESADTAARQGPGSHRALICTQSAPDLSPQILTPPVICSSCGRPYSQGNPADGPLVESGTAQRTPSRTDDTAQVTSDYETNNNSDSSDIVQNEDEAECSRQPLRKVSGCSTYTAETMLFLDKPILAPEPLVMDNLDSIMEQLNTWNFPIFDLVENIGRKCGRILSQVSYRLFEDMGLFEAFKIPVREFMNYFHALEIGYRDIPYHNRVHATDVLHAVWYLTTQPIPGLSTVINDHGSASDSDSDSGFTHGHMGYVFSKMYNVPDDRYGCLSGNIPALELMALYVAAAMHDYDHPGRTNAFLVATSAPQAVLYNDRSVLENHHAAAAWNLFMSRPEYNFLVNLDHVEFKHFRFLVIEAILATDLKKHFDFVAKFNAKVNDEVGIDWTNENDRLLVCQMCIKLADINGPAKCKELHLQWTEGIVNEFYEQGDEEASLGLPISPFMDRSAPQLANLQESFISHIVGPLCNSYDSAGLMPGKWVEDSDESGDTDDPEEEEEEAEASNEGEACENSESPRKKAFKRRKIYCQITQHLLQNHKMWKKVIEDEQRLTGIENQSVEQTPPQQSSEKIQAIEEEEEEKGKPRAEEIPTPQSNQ
How it was run: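 PDE3 taken from rabbit platelets as a DEAE-cellulose fraction, incubated with inhibitor and [3H]-cAMP or [3H]-cGMP (500 nM) for about 1 h at 30° C, pH 7.4. Product converted by snake venom or 5′-nucleotidase, unreacted substrate removed on anion-exchange resin, supernatant radioactivity counted by β-counter.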

[3] = Solubility in buffer solution in pH=2&5; assay type: physicochemical; conditions: 20 °C, thermodynamic from solid
Method: According to that defined in the Korea Pharmacopoeia, citrate-HCl buffer (pH 2) and citrate-NaOH buffer (pH 5) solutions were added to the powdered compounds of formula 1, respectively. After subsequent severe shaking for 30 sec every 5 min in […] for 30 min, the level of compounds in the filtrate was measured by high performance liquid chromatography.

[4] = Metabolism in rat liver (9,000xg supernatant fraction with NADPH); assay type: in vitro ADME; conditions: 10 ug/ml, 37° C., 1 hr, rat liver 9,000xg supernatant with NADPH generating solution
Method: In order to evaluate the extent of metabolism of the compounds of formula 1, the metabolism in rat liver was studied as below similar to the reported method (C. L. Litterist, E. G. Mimnaugh, R. I. Reagan and T. G. Gram., Drug. Metabol. Disposit., 1975, 3, 259-265). In short, the disappearance of compounds after incubation in 9, 000×g supernatant fraction of rat liver homogenate in the presence of NADPH (reduced nicotinamide adenine dinucleotide phosphate) was evaluated.
First, Sprague-Dawley rat (Korea Experiment Animals, SPF) liver was isolated after perfusion through portal vein with 0.1 M phosphate buffer of pH 7.0 using tissue homogenizer at 4° C. After centrifugation at 9,000×g for 20 min, the supernatants were collected.
The compound stock solution was spiked (10 ug/ml) into each of the eppendorf tubes containing 1 ml of the mixed solution composing 1 volume of supernatants and 2 volumes of generating solution. The generating solution contains 1 mM NADP, 10 mM glucose-6-phosphate, 50 mM nicotinamide and 5 MM MgCl2 in 0.1 M phosphate buffer of pH 7.0. After vortex-mixing, each test tube was incubated in a water bath kept at 37° C. After 1 hr, was added acetonitrile to the reaction mixture and centrifuged. 100 ul of aliquot of the supernatant was sampled from each test tube for measuring the remnants by high performance liquid chromatography.

[5] = biological target: T2, Phosphodiesterase-5 enzyme (PDE 5) (Homo sapiens, UniProt O76074); assay: Test for phosphodiesterase-5 (PDE 5) activity; assay type: biochemical; conditions: PDE 5 fraction from human corpus cavernosal tissues
T2 construct: separated by HPLC (Mono Q anion exchange column) with concentration gradient of 0-500 mM NaCl to elute PDE isozymes; from tissue; host or cells: human corpus cavernosal tissue

[6] = test system: men with erectile dysfunction of organic cause; conditions: oral administration; cited from earlier work
[7] = biological target: Phosphodiesterase-6 enzyme (PDE 6) (Aquarana catesbeiana, UniProt Z9LGG0MB32+Z9OH76POJ0); assay: Test for phosphodiesterase-6 (PDE 6) activity; assay type: biochemical, bullfrog; conditions: PDE 6 fraction from retina of bullfrogs, trypsin-activated
[8] = citrate-HCl buffer, pH 2, aqueous buffer, citrate-HCl buffer (pH 2), read-out: solubility pH 2
[9] = citrate-NaOH buffer, pH 5, aqueous buffer, citrate-NaOH buffer (pH 5), read-out: solubility pH 5

| IC50 [7] | SMILES | PEI (penile erection index) (rats) | genital grooming (number of genital groomings) (rats) | LD50 [1] | pIC50 [2] | solubility at 30 min [3, 8] | solubility at 30 min [3, 9] | remnants (%) [4] | pIC50 [5] | response rate [6] |
| --- | --- | --- | --- | --- | --- | --- | --- | --- | --- | --- |
|  | CCOc1ccc(S(=O)(=O)NCc2cccnc2)cc1-c1nc2c(CC(C)C)nn(C)c2c(=O)[nH]1 [Example 48, 5-[2-ethoxy-5-(3-pyridylmethylamidosulfonyl)phenyl]-1-methyl-3-isobutyl-1,6-dihydro-7H-pyrazolo(4,3-d)pyrimidin-7-one] | 166.7 ± 57.7 | 1.3 ± 0.6 | > 1000 mg/kg | 4.47 | 114 µg/mL (≈ 230 µM) | 0.3 µg/mL (≈ 0.604 µM) | 66.0% | 9.05 |  |
| 0.0767 ± 0.00153 µg/mL (≈ 0.162 µM) | CCCc1nn(C)c2c(=O)[nH]c(-c3cc(S(=O)(=O)N4CCN(C)CC4)ccc3OCC)nc12 [sildenafil, reference compound] |  | 3.1 ± 1.2 |  | 4.15 | 1580 µg/mL (≈ 3340 µM) | 480 µg/mL (≈ 1010 µM) |  |  | around 80% |
